Reference: ChEMBL document CHEMBL4507283, “Data for DCP probe BI-1935” (2021)

Assays:
[1] = target: T1, Sodium-dependent dopamine transporter (Homo sapiens, UniProt Q01959); assay: GPCRScan assay: inhibition of DAT; set-up: radioligand conc. used [nm] 3.6 – 16.0, parental cells stable HEK
[2] = target: T2, Bifunctional epoxide hydrolase 2 (Homo sapiens, UniProt P34913); assay: Human soluble epoxide hydrolase inhibition
T2 sequence (P34913 whole entry): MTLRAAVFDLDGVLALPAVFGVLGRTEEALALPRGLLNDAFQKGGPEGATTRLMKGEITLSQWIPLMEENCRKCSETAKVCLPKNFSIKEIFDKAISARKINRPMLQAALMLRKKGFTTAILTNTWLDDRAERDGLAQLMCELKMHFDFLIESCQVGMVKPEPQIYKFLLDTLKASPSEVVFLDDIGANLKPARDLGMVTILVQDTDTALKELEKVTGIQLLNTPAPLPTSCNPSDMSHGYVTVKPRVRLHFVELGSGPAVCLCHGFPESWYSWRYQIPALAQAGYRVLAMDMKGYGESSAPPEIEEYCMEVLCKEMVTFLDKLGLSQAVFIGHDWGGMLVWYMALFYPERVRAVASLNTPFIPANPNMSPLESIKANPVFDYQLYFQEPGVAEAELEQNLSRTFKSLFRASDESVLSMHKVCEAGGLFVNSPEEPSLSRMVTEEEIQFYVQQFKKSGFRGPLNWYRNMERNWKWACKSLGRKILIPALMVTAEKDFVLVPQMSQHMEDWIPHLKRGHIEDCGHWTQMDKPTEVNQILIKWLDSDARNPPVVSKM

[3] = target: 5-hydroxytryptamine receptor 1A (Homo sapiens) (UniProt P08908); details: Compound concentration 10.0 uM
[4] = target: 5-hydroxytryptamine receptor 1B (Homo sapiens) (UniProt P28222); details: Compound concentration 10.0 uM
[5] = target: 5-hydroxytryptamine receptor 1D (Homo sapiens) (UniProt P28221); details: Compound concentration 10.0 uM
[6] = target: 5-hydroxytryptamine receptor 1E (Homo sapiens) (UniProt P28566); details: Compound concentration 10.0 uM
[7] = target: 5-hydroxytryptamine receptor 2A (Homo sapiens) (UniProt P28223); details: Compound concentration 10.0 uM
[8] = target: 5-hydroxytryptamine receptor 2B (Homo sapiens) (UniProt P41595); details: Compound concentration 10.0 uM
[9] = target: T3, 5-hydroxytryptamine receptor 3A (Homo sapiens) (UniProt P46098); details: Compound concentration 10.0 uM
T3 sequence (whole entry): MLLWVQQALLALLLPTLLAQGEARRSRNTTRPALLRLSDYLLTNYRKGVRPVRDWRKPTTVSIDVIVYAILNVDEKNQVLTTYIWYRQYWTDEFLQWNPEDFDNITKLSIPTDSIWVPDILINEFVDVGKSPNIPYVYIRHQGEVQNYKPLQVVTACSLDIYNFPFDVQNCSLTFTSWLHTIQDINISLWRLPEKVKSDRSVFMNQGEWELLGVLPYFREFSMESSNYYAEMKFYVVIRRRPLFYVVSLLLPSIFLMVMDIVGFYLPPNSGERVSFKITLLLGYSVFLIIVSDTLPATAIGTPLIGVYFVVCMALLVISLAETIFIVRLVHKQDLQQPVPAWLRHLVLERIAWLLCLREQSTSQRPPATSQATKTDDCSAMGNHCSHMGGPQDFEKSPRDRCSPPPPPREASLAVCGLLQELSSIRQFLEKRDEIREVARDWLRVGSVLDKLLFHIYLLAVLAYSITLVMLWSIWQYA

[10] = target: 5-hydroxytryptamine receptor 5A (Homo sapiens) (UniProt P47898); details: Compound concentration 10.0 uM
[11] = target: 5-hydroxytryptamine receptor 7 (Homo sapiens) (UniProt P34969); details: Compound concentration 10.0 uM
[12] = target: D(1A) dopamine receptor (Homo sapiens) (UniProt P21728); details: Compound concentration 10.0 uM
[13] = target: D(2) dopamine receptor (Homo sapiens) (UniProt P14416); details: Compound concentration 10.0 uM
[14] = target: D(3) dopamine receptor (Homo sapiens) (UniProt P35462); details: Compound concentration 10.0 uM
[15] = target: Sodium-dependent serotonin transporter (Homo sapiens) (UniProt P31645); details: Compound concentration 10.0 uM
[16] = target: Sodium-dependent noradrenaline transporter (Homo sapiens) (UniProt P23975); details: Compound concentration 10.0 uM
[17] = target: T1, Sodium-dependent dopamine transporter; details: Compound concentration 10.0 uM
[18] = target: Mu-type opioid receptor (Homo sapiens) (UniProt P35372); details: Compound concentration 10.0 uM
[19] = target: Delta-type opioid receptor (Homo sapiens) (UniProt P41143); details: Compound concentration 10.0 uM
[20] = target: Kappa-type opioid receptor (Homo sapiens) (UniProt P41145); details: Compound concentration 10.0 uM
[21] = target: GABA-A receptor; anion channel (Rattus norvegicus) (UniProt O09028+P15431+P18506+P18508+P19969+P20236+P23574+P23576+P28471+P28473+P30191+P62813+P63079+P63138+Q91ZM7+Q9ES14); details: Compound concentration 10.0 uM
[22] = target: Histamine H1 receptor (Homo sapiens) (UniProt P35367); details: Compound concentration 10.0 uM
[23] = target: Histamine H2 receptor (Homo sapiens) (UniProt P25021); details: Compound concentration 10.0 uM
[24] = target: Histamine H3 receptor (Homo sapiens) (UniProt Q9Y5N1); details: Compound concentration 10.0 uM
[25] = target: Histamine H4 receptor (Homo sapiens) (UniProt Q9H3N8); details: Compound concentration 10.0 uM
[26] = target: Alpha-1A adrenergic receptor (Homo sapiens) (UniProt P35348); details: Compound concentration 10.0 uM
[27] = target: Alpha-1B adrenergic receptor (Homo sapiens) (UniProt P35368); details: Compound concentration 10.0 uM
[28] = target: Alpha-2A adrenergic receptor (Homo sapiens) (UniProt P08913); details: Compound concentration 10.0 uM
[29] = target: Alpha-2B adrenergic receptor (Homo sapiens) (UniProt P18089); details: Compound concentration 10.0 uM
[30] = target: Alpha-2C adrenergic receptor (Homo sapiens) (UniProt P18825); details: Compound concentration 10.0 uM
[31] = target: Beta-1 adrenergic receptor (Homo sapiens) (UniProt P08588); details: Compound concentration 10.0 uM
[32] = target: Beta-2 adrenergic receptor (Homo sapiens) (UniProt P07550); details: Compound concentration 10.0 uM
[33] = target: Muscarinic acetylcholine receptor M1 (Homo sapiens) (UniProt P11229); details: Compound concentration 10.0 uM
[34] = target: Muscarinic acetylcholine receptor M2 (Homo sapiens) (UniProt P08172); details: Compound concentration 10.0 uM
[35] = target: Muscarinic acetylcholine receptor M3 (Homo sapiens) (UniProt P20309); details: Compound concentration 10.0 uM
[36] = target: Muscarinic acetylcholine receptor M4 (Homo sapiens) (UniProt P08173); details: Compound concentration 10.0 uM
[37] = target: Muscarinic acetylcholine receptor M5 (Homo sapiens) (UniProt P08912); details: Compound concentration 10.0 uM
[38] = target: Beta-3 adrenergic receptor (Homo sapiens) (UniProt P13945); details: Compound concentration 10.0 uM
Rattus norvegicus = species: Rattus norvegicus; details: Compound concentration 10.0 uM
[39] = target: Alpha-1D adrenergic receptor (Homo sapiens) (UniProt P25100); details: Compound concentration 10.0 uM
[40] = target: Sigma intracellular receptor 2 (Homo sapiens) (UniProt Q5BJF2); details: Compound concentration 10.0 uM
Chain of Sigma intracellular receptor 2 (Homo sapiens) (Q5BJF2 whole entry): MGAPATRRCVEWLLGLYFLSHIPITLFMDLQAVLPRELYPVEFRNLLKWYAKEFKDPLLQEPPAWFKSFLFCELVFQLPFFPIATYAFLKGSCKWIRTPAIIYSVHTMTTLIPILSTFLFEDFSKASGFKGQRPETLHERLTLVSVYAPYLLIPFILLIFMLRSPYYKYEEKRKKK

T1 sequence (Q01959 whole entry): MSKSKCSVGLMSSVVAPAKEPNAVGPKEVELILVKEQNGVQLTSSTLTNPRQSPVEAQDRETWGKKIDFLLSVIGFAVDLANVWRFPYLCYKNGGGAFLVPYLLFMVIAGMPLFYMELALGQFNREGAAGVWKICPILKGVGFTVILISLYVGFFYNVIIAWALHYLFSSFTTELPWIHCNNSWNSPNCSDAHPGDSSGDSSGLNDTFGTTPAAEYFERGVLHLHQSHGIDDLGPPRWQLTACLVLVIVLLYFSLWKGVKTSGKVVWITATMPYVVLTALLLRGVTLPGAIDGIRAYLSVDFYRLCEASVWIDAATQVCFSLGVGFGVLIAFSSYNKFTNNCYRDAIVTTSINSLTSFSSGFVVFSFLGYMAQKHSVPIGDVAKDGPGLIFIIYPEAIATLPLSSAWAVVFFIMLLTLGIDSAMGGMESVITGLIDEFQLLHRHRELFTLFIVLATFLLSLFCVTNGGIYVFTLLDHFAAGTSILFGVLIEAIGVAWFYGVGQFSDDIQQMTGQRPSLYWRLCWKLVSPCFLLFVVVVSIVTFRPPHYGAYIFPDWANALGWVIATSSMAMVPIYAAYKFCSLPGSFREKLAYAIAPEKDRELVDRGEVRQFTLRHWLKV
Chain of Delta-type opioid receptor (Homo sapiens) (P41143 whole entry): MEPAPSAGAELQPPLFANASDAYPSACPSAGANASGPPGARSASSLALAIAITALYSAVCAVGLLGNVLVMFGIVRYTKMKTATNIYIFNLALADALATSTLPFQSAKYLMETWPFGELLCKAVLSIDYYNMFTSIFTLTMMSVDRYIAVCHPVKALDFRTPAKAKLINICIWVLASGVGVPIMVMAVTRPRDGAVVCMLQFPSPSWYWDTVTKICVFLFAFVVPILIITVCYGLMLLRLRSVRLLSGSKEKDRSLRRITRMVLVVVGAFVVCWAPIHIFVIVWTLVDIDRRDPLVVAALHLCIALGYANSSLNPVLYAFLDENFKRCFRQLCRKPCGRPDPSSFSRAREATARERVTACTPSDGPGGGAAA
Chain of Histamine H1 receptor (Homo sapiens) (P35367 whole entry): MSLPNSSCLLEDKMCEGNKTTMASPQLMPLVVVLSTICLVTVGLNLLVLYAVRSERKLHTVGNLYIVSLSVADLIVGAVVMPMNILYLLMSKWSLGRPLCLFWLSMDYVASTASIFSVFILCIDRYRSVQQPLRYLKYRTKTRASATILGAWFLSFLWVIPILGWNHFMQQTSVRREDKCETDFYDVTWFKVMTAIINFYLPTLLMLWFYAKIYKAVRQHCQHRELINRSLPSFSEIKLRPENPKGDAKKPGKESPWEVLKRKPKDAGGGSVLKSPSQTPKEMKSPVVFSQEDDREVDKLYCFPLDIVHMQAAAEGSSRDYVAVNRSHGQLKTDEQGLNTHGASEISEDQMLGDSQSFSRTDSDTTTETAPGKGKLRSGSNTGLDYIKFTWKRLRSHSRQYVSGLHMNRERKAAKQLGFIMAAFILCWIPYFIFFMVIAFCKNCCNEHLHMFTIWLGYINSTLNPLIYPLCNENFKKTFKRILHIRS
Chain of Histamine H2 receptor (Homo sapiens) (P25021 whole entry): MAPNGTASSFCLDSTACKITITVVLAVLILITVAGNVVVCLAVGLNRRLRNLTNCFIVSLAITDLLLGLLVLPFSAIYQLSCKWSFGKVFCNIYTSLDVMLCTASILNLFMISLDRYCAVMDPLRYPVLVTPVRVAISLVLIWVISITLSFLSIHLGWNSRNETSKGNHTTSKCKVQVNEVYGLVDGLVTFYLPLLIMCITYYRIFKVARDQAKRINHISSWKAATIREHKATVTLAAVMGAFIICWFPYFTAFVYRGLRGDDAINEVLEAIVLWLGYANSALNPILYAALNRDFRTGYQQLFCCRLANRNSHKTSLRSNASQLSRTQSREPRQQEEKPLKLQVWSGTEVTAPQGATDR
Chain of 5-hydroxytryptamine receptor 2A (Homo sapiens) (P28223 whole entry): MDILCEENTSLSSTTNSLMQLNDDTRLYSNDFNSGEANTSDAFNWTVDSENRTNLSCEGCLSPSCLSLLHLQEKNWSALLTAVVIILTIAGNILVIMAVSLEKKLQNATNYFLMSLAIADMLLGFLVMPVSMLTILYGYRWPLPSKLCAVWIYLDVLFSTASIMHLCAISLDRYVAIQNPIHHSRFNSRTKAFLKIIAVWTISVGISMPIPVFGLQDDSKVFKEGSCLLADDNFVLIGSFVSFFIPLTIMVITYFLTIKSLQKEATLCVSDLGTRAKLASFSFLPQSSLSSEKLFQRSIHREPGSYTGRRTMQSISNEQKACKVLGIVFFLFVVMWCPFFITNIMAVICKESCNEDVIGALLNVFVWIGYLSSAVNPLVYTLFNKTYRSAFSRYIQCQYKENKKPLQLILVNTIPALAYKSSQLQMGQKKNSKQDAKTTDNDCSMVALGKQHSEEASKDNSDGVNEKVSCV
Chain of Alpha-2C adrenergic receptor (Homo sapiens) (P18825 whole entry): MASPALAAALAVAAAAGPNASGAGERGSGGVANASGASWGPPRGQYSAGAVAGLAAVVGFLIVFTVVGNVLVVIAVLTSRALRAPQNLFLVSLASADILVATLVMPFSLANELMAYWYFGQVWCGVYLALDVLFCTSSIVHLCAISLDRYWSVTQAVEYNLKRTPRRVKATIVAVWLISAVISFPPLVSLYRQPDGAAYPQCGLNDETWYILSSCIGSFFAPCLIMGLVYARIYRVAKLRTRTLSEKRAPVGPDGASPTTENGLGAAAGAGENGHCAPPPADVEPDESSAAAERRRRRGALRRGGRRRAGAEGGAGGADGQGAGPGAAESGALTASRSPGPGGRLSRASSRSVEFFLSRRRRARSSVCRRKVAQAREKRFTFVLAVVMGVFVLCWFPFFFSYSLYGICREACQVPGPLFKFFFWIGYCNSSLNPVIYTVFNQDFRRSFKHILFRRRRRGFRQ
Chain of Alpha-1D adrenergic receptor (Homo sapiens) (P25100 whole entry): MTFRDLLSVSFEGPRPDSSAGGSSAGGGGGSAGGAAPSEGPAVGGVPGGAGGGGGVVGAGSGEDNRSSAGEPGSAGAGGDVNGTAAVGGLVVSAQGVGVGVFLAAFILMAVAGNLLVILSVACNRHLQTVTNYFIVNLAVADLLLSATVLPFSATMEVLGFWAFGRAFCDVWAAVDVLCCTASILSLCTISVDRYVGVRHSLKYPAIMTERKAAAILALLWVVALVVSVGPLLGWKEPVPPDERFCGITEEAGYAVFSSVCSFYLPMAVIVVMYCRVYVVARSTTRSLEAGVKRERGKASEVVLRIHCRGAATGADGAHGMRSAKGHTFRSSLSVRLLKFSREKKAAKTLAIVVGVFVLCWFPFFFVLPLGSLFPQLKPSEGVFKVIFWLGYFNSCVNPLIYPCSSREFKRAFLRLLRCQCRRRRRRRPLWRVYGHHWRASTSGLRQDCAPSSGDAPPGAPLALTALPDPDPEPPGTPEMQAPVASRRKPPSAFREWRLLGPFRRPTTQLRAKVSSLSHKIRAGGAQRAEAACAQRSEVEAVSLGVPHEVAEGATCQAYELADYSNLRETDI
Chain of 5-hydroxytryptamine receptor 1D (Homo sapiens) (P28221 whole entry): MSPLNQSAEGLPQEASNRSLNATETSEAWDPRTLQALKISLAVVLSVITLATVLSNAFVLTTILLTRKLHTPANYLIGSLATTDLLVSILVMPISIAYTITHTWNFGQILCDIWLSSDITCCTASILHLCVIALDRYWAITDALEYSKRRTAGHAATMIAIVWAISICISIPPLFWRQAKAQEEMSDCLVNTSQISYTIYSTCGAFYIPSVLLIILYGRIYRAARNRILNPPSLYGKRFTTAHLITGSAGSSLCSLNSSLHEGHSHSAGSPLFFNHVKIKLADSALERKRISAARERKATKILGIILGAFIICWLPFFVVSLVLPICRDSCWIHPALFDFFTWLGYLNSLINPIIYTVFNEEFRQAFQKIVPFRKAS
Chain of Muscarinic acetylcholine receptor M5 (Homo sapiens) (P08912 whole entry): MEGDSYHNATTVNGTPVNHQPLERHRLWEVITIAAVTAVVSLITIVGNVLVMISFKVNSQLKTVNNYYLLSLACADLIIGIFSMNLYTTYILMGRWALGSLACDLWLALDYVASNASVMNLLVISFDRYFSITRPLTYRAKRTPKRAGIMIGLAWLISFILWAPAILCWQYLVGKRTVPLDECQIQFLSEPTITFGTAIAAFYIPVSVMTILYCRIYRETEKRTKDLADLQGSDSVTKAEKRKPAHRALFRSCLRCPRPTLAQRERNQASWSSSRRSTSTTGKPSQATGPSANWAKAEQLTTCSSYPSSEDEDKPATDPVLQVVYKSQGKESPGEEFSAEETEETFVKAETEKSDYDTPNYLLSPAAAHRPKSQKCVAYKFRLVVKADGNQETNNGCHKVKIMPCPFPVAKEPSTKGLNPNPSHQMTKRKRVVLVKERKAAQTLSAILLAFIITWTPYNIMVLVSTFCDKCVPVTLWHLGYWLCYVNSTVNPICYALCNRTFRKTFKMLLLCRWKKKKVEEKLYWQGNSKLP
Chain of 5-hydroxytryptamine receptor 1A (Homo sapiens) (P08908 whole entry): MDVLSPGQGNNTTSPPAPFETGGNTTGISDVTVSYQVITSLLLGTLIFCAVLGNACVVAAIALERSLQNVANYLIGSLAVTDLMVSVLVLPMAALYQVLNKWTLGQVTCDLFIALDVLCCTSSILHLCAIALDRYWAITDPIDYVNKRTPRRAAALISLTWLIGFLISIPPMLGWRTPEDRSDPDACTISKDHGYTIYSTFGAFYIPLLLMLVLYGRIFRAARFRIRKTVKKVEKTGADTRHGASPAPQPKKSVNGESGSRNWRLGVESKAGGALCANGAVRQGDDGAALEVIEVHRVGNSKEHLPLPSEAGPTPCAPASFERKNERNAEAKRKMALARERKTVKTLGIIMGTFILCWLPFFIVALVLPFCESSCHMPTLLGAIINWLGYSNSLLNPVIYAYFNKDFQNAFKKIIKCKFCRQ

pKi [1]: < 5
Ki ([1]; read-out: Ki): > 10 µM
IC50 [2]: > 3 µM (not active)
inhibition [3]: -3.06%
inhibition [4]: -0.85%
inhibition [5]: -9.83%
inhibition [6]: -4.45%
inhibition [7]: -1.62%
inhibition [8]: 9.91%
inhibition [9]: -8.89%
inhibition [10]: -2.92%
inhibition [11]: 6.21%
inhibition [12]: 4.32%
inhibition [13]: -9.24%
inhibition [14]: 8.38%
inhibition [15]: 9.16%
inhibition [16]: -9.35%
inhibition [17]: 68.2%
inhibition [18]: 7.17%
inhibition [19]: 3.77%
inhibition [20]: 13.8%
inhibition [21]: 16.1%
inhibition [22]: 3.07%
inhibition [23]: -5.62%
inhibition [24]: -1.54%
inhibition [25]: -9.32%
inhibition [26]: 1.9%
inhibition [27]: -3.49%
inhibition [28]: 8.3%
inhibition [29]: 1.26%
inhibition [30]: 6.33%
inhibition [31]: 0.23%
inhibition [32]: 5.14%
inhibition [33]: 25.5%
inhibition [34]: 9.94%
inhibition [35]: 3.71%
inhibition [36]: 0.8%
inhibition [37]: 0.37%
inhibition [38]: -0.78%
inhibition (Rattus norvegicus): 15%
inhibition [39]: 18.3%
inhibition [40]: 30.1%
Structure (SMILES): O=C(Nc1ccc(-n2nc(-c3cccnc3)cc2C(F)(F)F)cn1)c1ccc(-c2ccccc2)c(F)c1 [BI 2049]
